# How the values were obtained:
# α-Syn oligomers [1] = molecular target: T1, α-Syn oligomers (Homo sapiens, UniProt P37840); assay: Calcein-AM/EthD-1 staining, α-Syn oligomers with C1/C6; assay type: cell-based; conditions: SH-SY5Y cells
# T1 construct: made in house; host or cells: Escherichia coli BL21
# Source text: It has been shown that α-Syn mutants that form oligomers preferentially are more toxic and kill dopaminergic neurons in animal models as compared to fibril forming mutants. Therefore, compounds that effectively reduce the toxicity of oligomers could be beneficial for the treatment of PD. In the present study, we tested the effect of curcumin and its analogs on the toxicity, hydrophobic exposure and morphology of α-Syn oligomers isolated using size exclusion chromatography (SEC). The toxicity of α-Syn oligomers in presence and absence of curcumin/analogs were initially tested using MTT assay. […] As previously it has been proposed that curcumin reduces the oligomers toxicity by altering their exposed hydrophobic surface, we also measured the hydrophobic surface exposure of preformed α-Syn oligomers incubated with curcumin and its analogs.
# (§1) For this assay, SH-SY5Y cells were seeded in 96 well plate and incubated with identical concentrations of oligomers/fibrils (as used in MTT assay) in absence and presence of curcumin and its analogs for 36 h in 5% CO2 incubator at 37 °C. […] Calcein-AM/Ethidium homodimer-1 signal was then checked and imaged with an inverted fluorescence microscope (Leica DMi8). […] The free calcein emits strong fluorescence signal at ~535 nm, which could be easily observed in the green channel of a microscope. […]
# α-Syn fibrils [2] = molecular target: T2, α-Syn fibrils (Homo sapiens, UniProt P37840); assay: LDH cytotoxicity assay of α-Syn fibrils formed in presence of curcumin analogs; assay type: cell-based; conditions: SH-SY5Y cells
# T2 construct: made in house; host or cells: Escherichia coli BL21
# Source text: (§2) The percent LDH release was plotted as difference in the absorbance value of 490 nm and 690 nm, considering 100% release for the TritonX-100 treated cells.
# [3] = molecular target: T3, preformed α-Syn amyloid fibrils (Homo sapiens, UniProt P37840); assay: MTT assay of preformed α-Syn fibrils incubated with curcumin analogs; assay type: cell-based; conditions: fibrils incubated with analog 48 h at 37 °C; SH-SY5Y cells
# T3 construct: made in house; host or cells: Escherichia coli BL21
# Description: (§3) The concentration of the fibrils was determined by subtraction of supernatant concentration from the original concentration of α-Syn kept for fibrillation.
# preformed α-Syn fibrils [4] = molecular target: T4, preformed α-Syn fibrils (Homo sapiens, UniProt P37840); assay: Calcein-AM/EthD-1 staining, preformed α-Syn fibrils with analogs; assay type: cell-based; conditions: SH-SY5Y cells
# T4 construct: made in house; host or cells: Escherichia coli BL21
# Description: Previously it has been shown that curcumin decreases the toxicity of α-Syn amyloid fibrils by reducing the exposed hydrophobic surfaces. To delineate whether curcumin analogs can decrease the toxicity of preformed α-Syn fibrils, we performed cell viability assay. For this, 10-days incubated α-Syn solution was centrifuged (fibril formation was confirmed by electron microscopy (EM)) and the pelleted fibrils were then re-dissolved in same volume of 20 mM MES buffer (pH 6.0, 0.01% NaN3). The concentration of the fibrils was determined by subtraction of supernatant concentration from the original concentration of α-Syn kept for fibrillation. […] After incubation, we measured the effect of curcumin analogs on the toxicity of preformed α-Syn amyloid fibrils by MTT reduction assay on SH-SY5Y cells. […]
# as §1
# α-Syn fibrils [5] = molecular target: T2, α-Syn fibrils; assay: MTT assay of α-Syn fibrils formed in presence of curcumin analogs; assay type: cell-based; conditions: 10 μM α-Syn fibril, 36 h, SH-SY5Y
# Description: Next, we measured the effect of α-Syn fibrils formed in presence and absence of curcumin analogs on the viability of SH-SY5Y neuronal cell line by MTT reduction assay. SH-SY5Y cells were incubated with 10 μM α-Syn fibril formed in presence of various curcumin analogs for 36 h. […] However, the extent of decrease in toxicity was different for different analogs. […] The calcein-AM/ethidium homodimer-1 staining also further corroborated the results obtained from MTT and LDH assay (Fig. 8C).
# α-Syn oligomers [6] = molecular target: T1, α-Syn oligomers; assay: LDH cytotoxicity assay of α-Syn oligomers with C1/C6; assay type: cell-based; conditions: oligomers incubated 30 minutes with compound; SH-SY5Y cells
# Source text: (§4) It has been shown that α-Syn mutants that form oligomers preferentially are more toxic and kill dopaminergic neurons in animal models as compared to fibril forming mutants. Therefore, compounds that effectively reduce the toxicity of oligomers could be beneficial for the treatment of PD. In the present study, we tested the effect of curcumin and its analogs on the toxicity, hydrophobic exposure and morphology of α-Syn oligomers isolated using size exclusion chromatography (SEC). The toxicity of α-Syn oligomers in presence and absence of curcumin/analogs were initially tested using MTT assay. […] To further validate the effectiveness of C6 to reduce the cytotoxicity of α-Syn oligomers, we also performed LDH cytotoxicity assay and Calcein-AM/Ethidium homodimer-1 staining. […] As previously it has been proposed that curcumin reduces the oligomers toxicity by altering their exposed hydrophobic surface, we also measured the hydrophobic surface exposure of preformed α-Syn oligomers incubated with curcumin and its analogs.
# 10 μM of α-Syn oligomers/fibrils incubated with and without 5 μM curcumin/analogs were added to SH-SY5Y cells (10,000 cells/well) in 96 well plate. […] The percent LDH release was plotted as difference in the absorbance value of 490 nm and 690 nm, considering 100% release for the TritonX-100 treated cells.
# α-Syn oligomers [7] = molecular target: T1, α-Syn oligomers; assay: TEM of α-Syn oligomers with C1/C6; assay type: biochemical
# Source text: as §4
# 5 μl of various species of α-Syn (50 μM) incubated in absence and presence of curcumin and its analogs were spotted on carbon coated formavar grid and air dried for 10 min. The samples were then washed thrice with autoclaved MQ. The samples were then stained with 10 μl of uranyl formate 1% (w/v) and incubated in dark for 10 min. […]
# preformed α-Syn fibrils [8] = molecular target: T4, preformed α-Syn fibrils; assay: CD spectroscopy of preformed α-Syn fibrils with analogs; assay type: biochemical; conditions: 0 h and 48 h of incubation
# Description: Further, the effect of curcumin analogs on the secondary structure of protein in preformed amyloid fibrils was studied by circular dichroism (CD) spectroscopy at 0 h and after 48 h of incubation. […] To further validate this, Fourier transform infrared spectroscopy (FTIR) was also performed with these samples, where spectra were recorded from 1500 to 1800 cm^−1.The region characteristic of protein secondary structures (1600–1700 cm^−1) was deconvoluted and the peaks were assigned according to published reports. FTIR spectra in the 1600–1700 cm^−1 region of preformed α-Syn fibrils in absence and presence of curcumin and its analogs are presented in Figs 4B and S4 and their percentage of secondary structures are shown in Table-S1.
# 20 μl of protein solution from 80 μM stock was diluted to 200 μl in 20 mM MES buffer, pH 6.0 with 0.01% NaN3 such that final protein concentration becomes 8 μM. The protein solution was then placed into a quartz cell (Hellma, Forest Hills, NY) of 0.1 cm path-length. Spectra were recorded using JASCO-810 instrument at 25 °C. Spectra acquisition was over the wavelength range of 198–260 nm with the scan speed of 100 nm/min, bandwidth 1 nm, data pitch 1 nm and response time of 1 sec. Processing of raw data was done by subtraction of buffer spectra and subsequently smoothing according to the manufacturer’s instructions.
# preformed α-Syn fibrils [9] = molecular target: T4, preformed α-Syn fibrils; assay: LDH cytotoxicity assay of preformed α-Syn fibrils incubated with curcumin analogs; assay type: cell-based; conditions: fibrils incubated with analog 48 h; SH-SY5Y cells
# Description: as §3, §2
# α-Syn oligomers [10] = molecular target: T1, α-Syn oligomers; assay: MTT assay of α-Syn oligomers pre-incubated with curcumin analogs; assay type: cell-based; conditions: 10 μM α-Syn + 5 μM analog, 30 min RT; SH-SY5Y cells
# Source text: as §4
# For isolation of α-Syn oligomers, we used previously established protocol. Briefly, lyophilized α-Syn powder was dissolved in MES buffer, pH 6.0, 0.01% NaN3, at a concentration of 50 mg/ml. The dissolved protein was then centrifuged at 14,000 × g for 30 min at 4 °C using a table top microcentrifuge (HITACHI, himac CT15RE, Japan). […]
# α-Syn = molecular target: T5, α-Syn (Homo sapiens, UniProt P37840); assay: TEM of α-Syn aggregates formed in presence of analogs; assay type: biochemical
# T5 construct: made in house; host or cells: Escherichia coli BL21
# Description: Subsequently, we examined the effect of these analogs on α-Syn oligomerization by time dependent static light scattering experiment. […] After aggregation, TEM study was done to determine the effects of these analogs on the morphology of the resultant aggregates.
# The samples were then washed thrice with autoclaved MQ. The samples were then stained with 10 μl of uranyl formate 1% (w/v) and incubated in dark for 10 min. The EM image of each sample was acquired at 120 kV with magnifications in the range of 26,000X and 43,000X using a transmission electron microscope (TECNAI12 D312 FEI, Netherlands).
# [11] = Stability of curcumin analogs by time-dependent intrinsic fluorescence; assay type: physicochemical; conditions: 20 mM MES buffer pH 6.0, 0.01% NaN3, 37 °C
# Description: 1μl of this DMSO-stock solution was transferred to 2 ml microfuge tube and 1 ml of 20 mM MES buffer (pH 6.0, 0.01% NaN3) was added to it and mixed immediately by vortexing. These solutions were incubated at 37 °C and their respective fluorescence was taken at certain time intervals. The fluorescence was monitored by placing the 200 μl of the incubated solution in 0.1 cm path-length quartz cuvette (Hellma, Forest Hills, NY) and the spectra were acquired by using FluoroMax-4 spectrofluorometer (HORIBA JobinYvon) instrument with excitation and emission slit widths of 5 nm and 10 nm respectively. The fluorescence intensity maxima for each sample were plotted against time of incubation and fitted in exponential decay 1 in the Origin 8.0 software according to manufacture’s protocol (Fig. 2A).
# [12] = molecular target: T6, preformed α-Syn oligomers (Homo sapiens, UniProt P37840); assay: Nile red binding assay on α-Syn oligomers; assay type: biochemical; conditions: compared to α-Syn oligomers alone
# T6 construct: made in house; host or cells: Escherichia coli BL21
# Description: Therefore, compounds that effectively reduce the toxicity of oligomers could be beneficial for the treatment of PD.
# (§5) Stock solution of NR was prepared in DMSO (1 mM). […] Similar experimental protocol was used for NR binding to oligomers. FluoroMax-4 spectrofluorometer (HORIBA JobinYvon) was used with excitation and emission slit widths of 5 nm. The maximum NR fluorescence obtained at ~630 nm was used for plotting bar diagrams.
# preformed α-Syn fibrils [13] = molecular target: T4, preformed α-Syn fibrils; assay: Nile red binding assay on preformed α-Syn fibrils; assay type: biochemical; conditions: fibrils incubated with analog 48 h
# Description: as §5
ethidium homodimer staining with α-Syn oligomers (α-Syn oligomers [1]),Calcein-AM/EthD-1 staining with preformed α-Syn fibrils (preformed α-Syn fibrils [4]),morphology of α-Syn oligomers (TEM) (α-Syn oligomers [7]),secondary structure of preformed α-Syn fibrils by CD (preformed α-Syn fibrils [8]),Structure (SMILES),"toxicity of α-Syn fibrils formed in presence of analog, LDH (α-Syn fibrils [2])","effect on toxicity of preformed α-Syn fibrils, MTT [3]","toxicity of α-Syn fibrils formed in presence of analog, MTT (α-Syn fibrils [5])",LDH release with α-Syn oligomers (α-Syn oligomers [6]),"effect on cell death by preformed α-Syn fibrils, LDH (preformed α-Syn fibrils [9])","effect on toxicity of α-Syn oligomers, MTT (α-Syn oligomers [10])",average fibril thickness of fibrils formed in presence of analog (α-Syn),relative stability compared with curcumin (slope of normalized fluorescence versus time) [11],Nile red fluorescence of α-Syn oligomers (exposed hydrophobic surface) [12],Nile red fluorescence of preformed α-Syn fibrils (exposed hydrophobic surface) (preformed α-Syn fibrils [13])
less ethidium homodimer staining,less nuclear staining by EthD-1,significantly altered their morphology,remains unaltered,"COc1cc(/C=C/C(=O)CC(=O)/C=C/c2ccc(O)c(OC)c2)ccc1O [C1, Curcumin (diferuloylmethane), reference compound]",less toxicity to cells,reduction in toxicity,less toxicity to cells,reduced LDH release,decrease in cell death,–,–,–,–,–
–,–,–,–,COc1ccc(/C=C/C(=O)CC(=O)/C=C/c2ccc(OC)c(OC)c2)cc1OC [C2],–,–,–,–,decrease in cell death,slight reduction in the toxicity,more in comparison to fibrils formed in presence of other analogs,less stable than curcumin,increase in NR fluorescence,less NR fluorescence for fibrils as compared to curcumin

# Source: publication PMC4919791, “Effect of curcumin analogs onα-synuclein aggregation and cytotoxicity” (Scientific Reports, 2016)
